Where two headings read alike, the source gives them in different places.
Key:
MRP1 = assay: Western blot, protein level of MRP1; format: cell-based, Human; settings: Caco-2 cells, 200 μM, 2 h, normalized to β-actin, vs control
Method: (§1) Cell lysates were prepared with RIPA lysis buffer. […] Cell protein (50 μg) was loaded onto SDS polyacrylamide gel (5% stacking gel; 8% separating gel) and separated by electrophoresis for 1.5 h at 20 mA. Next, the separated proteins were transferred onto the PVDF membrane in ice bath for 1.5 h at 120 mA, followed by blocking the membrane with 5% nonfat milk in Tris-buffered saline containing 0.1% Tween-20 (TBST) for 1 h at room temperature. After blocking, the blots were incubated overnight at 4 °C with the primary antibody of P-gp, MRP1, MRP2, MRP3, BCRP (1:200) or β-actin (1:40,000), followed by washing with TBST and incubation for 1 h at room temperature with HRP-conjugated goat anti-rabbit (1:3,000). Immunoreactive proteins were visualized by the ECL detection system, band intensity was quantified by Image Lab (Bio-Rad, CA, USA), and the protein contents were normalized to β-actin.

[1] = Stability (recovery rate) of theaflavins in HBSS and DMEM in the absence of cells; settings: 2 h
Method: Standard stock solutions of each theaflavin were diluted with HBSS and DMEM respectively, obtaining final test solutions of 200 μM. The recovery rate of theaflavins in HBSS and in DMEM, in the absence of cells, was analyzed by HPLC after incubation at 37 °C for 0.5, 1, 2, 3, 4, 8, 12, and 24 hours, respectively. The recovery rate was used to measure the stability and calculated as follows: (2) Recovery rate=Ct/C0× 100% where Ct is the final concentration at different incubation time (μM); C0, the initial concentration (μM).
Theaflavins were characterized by high performance liquid chromatography (HPLC, Agilent 1100VL, Agilent Technologies Inc., CA, USA). Briefly, samples were extracted with 70% methanol, centrifuged at 685 × g for 10 min, and filtered through a 0.45 μm membrane (Nylon 66). The separation was performed by an ODS reversed-phase column (4.6 mm i.d.×250 mm, SB-C18, Agilent Technologies Inc., CA, USA) at a flow rate of 0.7 mL/min. Chromatographic conditions were slightly modified according to China National Standard (GB/T 30483-2013, GAQSIQ, P. R. China, 2013). Samples were eluted with a gradient of solvent A (100 mL water with 9 mL acetonitrile and 2 mL acetic acid) and B (100 mL acetonitrile with 17.8 mL water and 2 mL acetic acid) as follows: 0–5 min, 95% A; 5–10 min, 90% A; 10–20 min, 70% A; 20–25 min, 65% A; 25–30 min, 70% A; 30–35 min, 100% A. Theaflavins were detected using an ultraviolet detector at a wavelength of 278 nm.

BCRP = assay: Western blot, protein level of BCRP; format: cell-based, Human; settings: Caco-2 cells, 200 μM, 2 h, normalized to β-actin, vs control
Method: as §1

Caco-2 monolayers = assay: HPLC-MS/MS identification of metabolites in the absorptive transport of Caco-2 monolayers; format: in vitro ADME, Human; settings: 200 µM, 2 h; for conjugated metabolites (glucuronidated, sulfated and methylated): AP side or BL side of Caco-2 monolayers; for metabolites identified: absorptive transport, AP side and BL side
Method: TF3G, TF3’G and TFDG were dissolved in DMSO (≤0.5%), and then, diluted with HBSS. Caco-2 cells were incubated with 200 µM TF3G, TF3’G and TFDG at 37 °C for 2 h. Samples collected from both AP side and BL side were measured by HPLC with MS detection, and the metabolites were determined in terms of the standard TF, TF3G, TF3’G, TFDG, and gallic acid (Table S2).

[2] = Transepithelial transport of theaflavins across Caco-2 cell monolayers, with or without efflux transporter inhibitors; format: in vitro ADME, Human; settings: human; for recovery at 2 h, 200 μM: Caco-2, Caco-2 monolayers, after 2 h incubation; for efflux ratio at 2 h, 200 μM / Papp A→B at 2 h, 200 μM / Papp B→A at 2 h, 200 μM: 2 h incubation
Method: (§2) For transport studies, Caco-2 cells were seeded at a density of 3 × 10^5 cells per well in Transwell® inserts (polycarbonate membrane, 24 mm i.d., 0.4 μm pore size, Corning Costar Corp., NY, USA) in 6-well plates (Zhang et al., [2004]). […] The inserts were washed twice with HBSS buffer and equilibrated at 37 °C for 30 min. Standard stock solutions of each theaflavin were diluted to 200 μM with HBSS. For absorptive transport, theaflavins in 1.5 mL HBSS was added into the AP side and 2.6 mL HBSS was added into the BL side of all inserts. For secretory transport, 1.5 mL HBSS and 2.6 mL theaflavins in HBSS were added into AP side and BL side, respectively. Samples were collected from the receiving chamber after 0.5, 1, 2, 3, or 4 h incubation and then were lyophilized at −110 °C in a CoolSafe freeze dryer (LaboGene ApS, Bjarkesvej, Denmark) for HPLC analysis. The recovery rate of theaflavins in the transport was calculated from the above Equation (2).
(§3) Prior to transport inhibition experiment, cells were preincubated for 30 min with 100 μM Vep, 100 μM CsA, 100 μM MK-571, or 10 μM FTC in both sides (Vaidyanathan & Walle, [2001]; Wang et al., [2008]). Then, the absorptive and secretory experiments were performed in the presence of inhibitors as described above. Samples were collected from the receiving chamber after 2 h incubation and then were lyophilized at −110 °C for HPLC analysis.
(§4) The apparent permeability coefficient (Papp, cm/s) was calculated as follows: (3) Papp= dQ/dt×V/(A×C0) where dQ/dt is the variation in concentration on the receiving side over time (μM/s); V, the volume of the solution collected from the receiving chamber (cm^3); A, the area of the membrane (4.67 cm^2); C0, the initial concentration of theaflavins in the donor chamber (μM).
(§5) The efflux ratio was calculated as follows: (4) Efflux ratio= Papp(BL−AP)/Papp(AP−BL) where Papp, apparent permeability coefficient; AP-BL, apical to basolateral transport; BL-AP, basolateral to apical transport.

Caco-2 cell monolayers = assay: as above; format: in vitro ADME, Human; settings: for fold increase in the influx: absorptive transport, with verapamil vs control, 2 h
Method: as §2, §3, §4, §5

Caco-2 cells = assay: Cytotoxicity study by CCK-8 method; format: cell-based, Human; settings: 24 h
Method: Standard stock solutions (1000 μM) of each theaflavin were prepared in 0.1% dimethyl sulfoxide (DMSO) in deionized water, and diluted with fresh DMEM to 100, 200, 300, 400, and 500 µmol/L respectively. Each inhibitor was prepared as instructions. The cytotoxicity of theaflavins and four inhibitors of multidrug resistant associated proteins to Caco-2 cells was examined by CCK-8 method (Song et al., [2014]). Briefly, Caco-2 cells were inoculated onto 96-well microtiter plates at a density of 1 × 10^4 cells per well. After incubation at 37 °C for 24 h, cells were incubated for another 24 h with different concentrations of theaflavins, followed by adding 10 μL CCK-8 solution and 1 h incubation at 37 °C. The absorbance (OD) value was determined at 450 nm using a microplate reader (ELX-800, Bio-Tek Instruments Inc., Winooski, USA). Four inhibitors were used in this study: Vep, inhibitor of P-gp; CsA, inhibitor and substrate of P-gp; MK-571, inhibitor of MRP1, MRP2 and MRP3; FTC, inhibitor of BCRP (Silbermann et al., [1989]; König et al., [1999]; Renes et al., [1999]; Ali et al., [2017]). The cytotoxicity of Vep, CsA, MK-571 or FTC was also determined by CCK-8 assay. […] To determine the effects of inhibitors on the cytotoxicity of theaflavins, cells were incubated with both different theaflavin monomers (100, 200, 300, 400, and 500 μM) and different inhibitors. IC50, the half inhibitory concentration, was calculated from the cell viability. The cell viability was calculated by the following equation: (1) Cell viability (%)=(ODsample− ODblank)/(ODcontrol− ODblank)×100% where ODsample is the absorbance value of cell + sample + complete medium; ODblank, the absorbance value of complete medium; ODcontrol, the absorbance value of cell + complete medium.

[3] = apical to basolateral, read-out: recovery of theaflavins in absorptive transport
[4] = basolateral to apical, read-out: recovery of theaflavins in secretory transport
[5] = Caco-2, Papp(BL−AP)/Papp(AP−BL), Ctrl (no inhibitor)
[6] = Caco-2, absorptive transport, 200 μM theaflavin in HBSS, Ctrl (no inhibitor)
[7] = Caco-2, secretory transport, 200 μM theaflavin in HBSS, Ctrl (no inhibitor)
[8] = Caco-2, with 10 μM FTC (BCRP inhibitor), + 10 μM FTC (BCRP inhibitor)
[9] = Caco-2, with 10 μM FTC (BCRP inhibitor), absorptive transport, + 10 μM FTC (BCRP inhibitor)
[10] = Caco-2, with 10 μM FTC (BCRP inhibitor), secretory transport, + 10 μM FTC (BCRP inhibitor)
[11] = Caco-2, with 100 μM CsA (P-gp inhibitor and substrate), + 100 μM CsA (P-gp inhibitor and substrate)
[12] = Caco-2, with 100 μM CsA (P-gp inhibitor and substrate), absorptive transport, + 100 μM CsA (P-gp inhibitor and substrate)
[13] = Caco-2, with 100 μM CsA (P-gp inhibitor and substrate), secretory transport, + 100 μM CsA (P-gp inhibitor and substrate)
[14] = Caco-2, with 100 μM Vep (P-gp inhibitor), + 100 μM Vep (P-gp inhibitor)
[15] = Caco-2, with 100 μM Vep (P-gp inhibitor), absorptive transport, + 100 μM Vep (P-gp inhibitor)
[16] = Caco-2, with 100 μM Vep (P-gp inhibitor), secretory transport, + 100 μM Vep (P-gp inhibitor)
[17] = Homo sapiens, Ctrl (no inhibitor)

Row | conjugated metabolites (glucuronidated, sulfated and methylated) (Caco-2 monolayers) | metabolites identified (Caco-2 monolayers) | recovery at 2 h, 200 μM [2, 3] [%] | recovery at 2 h, 200 μM [2, 4] [%] | efflux ratio at 2 h, 200 μM [2, 5] | Papp A→B at 2 h, 200 μM [2, 6] [×10⁻⁶ cm/s] | Papp B→A at 2 h, 200 μM [2, 7] [×10⁻⁶ cm/s] | efflux ratio at 2 h, 200 μM [2, 8] | Papp A→B at 2 h, 200 μM [2, 9] [×10⁻⁶ cm/s] | Papp B→A at 2 h, 200 μM [2, 10] [×10⁻⁶ cm/s] | efflux ratio at 2 h, 200 μM [2, 11] | Papp A→B at 2 h, 200 μM [2, 12] [×10⁻⁶ cm/s] | Papp B→A at 2 h, 200 μM [2, 13] [×10⁻⁶ cm/s] | efflux ratio at 2 h, 200 μM [2, 14] | Papp A→B at 2 h, 200 μM [2, 15] [×10⁻⁶ cm/s] | Papp B→A at 2 h, 200 μM [2, 16] [×10⁻⁶ cm/s] | SMILES | increase of protein level of MRP1 (MRP1) | increase of protein level of BCRP (BCRP) | IC50 (Caco-2 cells; + CsA) [µM] | IC50 (Caco-2 cells; + FTC) [µM] | other results
1 | not detected | GA and TF | 44.2 | 47.6 | 1.58 ± 0.3 | 0.107 ± 0.004 | 0.168 ± 0.03 | 1.41 ± 0.27 | 0.109 ± 0.004 | 0.153 ± 0.027 | 1.13 ± 0.22 | 0.13 ± 0.005 | 0.146 ± 0.026 | 0.86 ± 0.16 | 0.203 ± 0.008 | 0.173 ± 0.031 | O=C(O[C@@H]1Cc2c(O)cc(O)cc2O[C@@H]1c1cc(O)c(=O)c2c(O)c(O)cc([C@H]3Oc4cc(O)cc(O)c4C[C@H]3O)c2c1)c1cc(O)c(O)c(O)c1 [TF3G, theaflavin-3-gallate] | 58.36% | 115.78% | 446 ± 30.1 | 508 ± 15.9 | degraded due to the structural instability [1]: 24.6%; fold increase in the influx (Caco-2 cell monolayers): 1.90 fold; transport amount, absorptive transport (peak) (Caco-2 cell monolayers; apical to basolateral, 200 μM, at 3 h): 1.30 ± 0.08 nmol; transport amount, secretory transport (peak) (Caco-2 cell monolayers; basolateral to apical, 200 μM, at 3 h): 3.59 ± 0.36 nmol; IC50 (Caco-2 cells; + MK-571): 585 ± 78.7 µM; IC50 (Caco-2 cells; + VEP): 454 ± 13.2 µM; IC50 (Caco-2 cells; [17]): 641 ± 7.8 µM
2 | not detected | GA (peak M3, Figure 5(G,H)) and TF | 31.8 | 31.6 | 1.62 ± 0.15 | 0.044 ± 0.003 | 0.072 ± 0.003 | 1.26 ± 0.11 | 0.054 ± 0.003 | 0.067 ± 0.002 | 1.55 ± 0.14 | 0.054 ± 0.003 | 0.084 ± 0.003 | 1.08 ± 0.1 | 0.055 ± 0.003 | 0.059 ± 0.002 | O=C(O[C@@H]1Cc2c(O)cc(O)cc2O[C@@H]1c1cc(O)c(O)c2c(=O)c(O)cc([C@H]3Oc4cc(O)cc(O)c4C[C@H]3O)cc12)c1cc(O)c(O)c(O)c1 [TF3’G, theaflavin-3’-gallate] | increased | increased | 575 ± 84.3 | 432 ± 30.7 | degraded due to the structural instability [1]: 22.1%; fold increase in the influx (Caco-2 cell monolayers): 1.24 fold; IC50 (Caco-2 cells; + MK-571): 424 ± 35 µM; IC50 (Caco-2 cells; + VEP): 467 ± 53.3 µM; IC50 (Caco-2 cells; [17]): 521 ± 31.9 µM
3 | not detected | GA, TF, TF3G, and TF3’G | 32.7 | 24.7 | 1.57 ± 0.08 | 0.364 ± 0.034 | 0.569 ± 0.049 | 1.47 ± 0.08 | 0.375 ± 0.035 | 0.552 ± 0.048 | 1.58 ± 0.09 | 0.4 ± 0.037 | 0.632 ± 0.055 | 1.53 ± 0.08 | 0.357 ± 0.033 | 0.546 ± 0.047 | O=C(O[C@@H]1Cc2c(O)cc(O)cc2O[C@@H]1c1cc(O)c(=O)c2c(O)c(O)cc([C@H]3Oc4cc(O)cc(O)c4C[C@H]3OC(=O)c3cc(O)c(O)c(O)c3)c2c1)c1cc(O)c(O)c(O)c1 [TFDG, theaflavin-3, 3’-digallate] | increased | increased | 702 ± 69.4 | 580 ± 83.9 | efflux ratio at 2 h, 200 μM ([2]; Caco-2, with 100 μM MK-571 (MRP1, MRP2, MRP3 inhibitor), + 100 μM MK-571 (MRP1, MRP2, MRP3 inhibitor)): 1.35 ± 0.07; Papp A→B at 2 h, 200 μM ([2]; Caco-2, with 100 μM MK-571 (MRP1, MRP2, MRP3 inhibitor), absorptive transport, + 100 μM MK-571 (MRP1, MRP2, MRP3 inhibitor)): 0.389 ± 0.036 ×10⁻⁶ cm/s; Papp B→A at 2 h, 200 μM ([2]; Caco-2, with 100 μM MK-571 (MRP1, MRP2, MRP3 inhibitor), secretory transport, + 100 μM MK-571 (MRP1, MRP2, MRP3 inhibitor)): 0.524 ± 0.046 ×10⁻⁶ cm/s; transport amount, absorption peak (Caco-2 cell monolayers; apical to basolateral, 200 μM, at 2 h): 2.44 ± 0.23 nmol; transport amount, secretion peak (Caco-2 cell monolayers; basolateral to apical, 200 μM, at 2 h): 3.83 ± 0.33 nmol; IC50 (Caco-2 cells; + MK-571): 373 ± 38.8 µM; IC50 (Caco-2 cells; + VEP): 509 ± 40.6 µM; IC50 (Caco-2 cells; [17]): 580 ± 34.7 µM

— PMC8409943, “Study on mechanism of low bioavailability of black tea theaflavins by using Caco-2 cell monolayer” (Drug Delivery, 2021)
